Laboratory results reported in the supplement of paper PMC5908809.

What was measured:
IMC-1 (IL-2 20 ng/mL) [1] = assay: drug sensitivity score (DSS) (DSS units); higher = more sensitive; extreme values may be limits of the assay; conditions: 72 h
[2] = tested on: normal primary NK cells, pool 3 (3 donors) (IL-2 2.5 ng/mL); assay: as above; conditions: 72 h
[3] = tested on: normal primary NK cells, pool 2 (3 donors) (IL-2 2.5 ng/mL); assay: as above; conditions: 72 h
[4] = tested on: normal NK cells expanded with K562-aAPC; assay: as above; conditions: 72 h; IL-2 2.5 ng/mL
Procedure: (§1)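 Drug sensitivity and resistance testing on K562-aAPC-expanded normal NK cells: 5 concentrations (10-fold steps over a 10,000-fold range), 72 h at 37 °C, viability by CellTiter-Glo normalised to DMSO and benzethonium chloride controls; DSS from the fitted curve.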

[5] = tested on: normal NK cells expanded with K562-aAPC; assay: percent inhibition of viability; higher = more inhibition; conditions: 72 h, IL-2 2.5 ng/mL
Procedure: as §1

IMC-1 (IL-2 20 ng/mL) [6] = assay: as above; conditions: 72 h
[7] = tested on: normal primary NK cells, pool 3 (3 donors) (IL-2 2.5 ng/mL); assay: as above; conditions: 72 h
[8] = tested on: normal primary NK cells, pool 2 (3 donors) (IL-2 2.5 ng/mL); assay: as above; conditions: 72 h
[9] = tested on: normal primary NK cells, pool 1 (3 donors), resting (IL-2 0 ng/mL); assay: drug sensitivity score (DSS) (DSS units); higher = more sensitive; extreme values may be limits of the assay; conditions: 72 h
YT (IL-2 2.5 ng/mL) [10] = assay: as above; conditions: 72 h
DERL-7 (IL-2 2.5 ng/mL) [11] = assay: as above; conditions: 72 h
NK-92 (IL-2 2.5 ng/mL) [12] = assay: as above; conditions: 72 h
NK-YS (IL-2 2.5 ng/mL) [13] = assay: as above; conditions: 72 h
KHYG-1 (IL-2 2.5 ng/mL) [14] = assay: as above; conditions: 72 h
NKL (IL-2 2.5 ng/mL) [15] = assay: as above; conditions: 72 h
SNK-6 (IL-2 2.5 ng/mL) [16] = assay: as above; conditions: 72 h
[17] = tested on: normal primary NK cells, pool 1 (3 donors) (IL-2 2.5 ng/mL); assay: as above; conditions: 72 h
KAI3 (IL-2 2.5 ng/mL) [18] = assay: as above; conditions: 72 h
[19] = tested on: normal primary NK cells, pool 1 (3 donors), resting (IL-2 0 ng/mL); assay: percent inhibition of viability; higher = more inhibition; conditions: 72 h
YT (IL-2 2.5 ng/mL) [20] = assay: as above; conditions: 72 h
DERL-7 (IL-2 2.5 ng/mL) [21] = assay: as above; conditions: 72 h
NK-92 (IL-2 2.5 ng/mL) [22] = assay: as above; conditions: 72 h
NK-YS (IL-2 2.5 ng/mL) [23] = assay: as above; conditions: 72 h
KHYG-1 (IL-2 2.5 ng/mL) [24] = assay: as above; conditions: 72 h
NKL (IL-2 2.5 ng/mL) [25] = assay: as above; conditions: 72 h
SNK-6 (IL-2 2.5 ng/mL) [26] = assay: as above; conditions: 72 h
[27] = tested on: normal primary NK cells, pool 1 (3 donors) (IL-2 2.5 ng/mL); assay: as above; conditions: 72 h
KAI3 (IL-2 2.5 ng/mL) [28] = assay: as above; conditions: 72 h

O=C(O)C1(C(=O)O)CCC1.[NH2-].[NH2-].[Pt+2] [Carboplatin] (max concentration tested 100000 nM)
Conditions | drug sensitivity score
IMC-1 (IL-2 20 ng/mL) [1] | 12.8
[2] | 5.79
[3] | 5.27
[4] | 8.66

percent inhibition of viability [%]
Conditions | 10 nM | 100 nM | 1000 nM | 10000 nM | 100000 nM
IMC-1 (IL-2 20 ng/mL) [6] | -6.21 | -0.67 | 1.27 | 61.7 | 100
[5] | -8.39 | -5.27 | 0.62 | 19.3 | 100
[7] | -8.77 | -1.51 | 10.8 | 18.1 | 64.7
[8] | 1.54 | -0.94 | 13 | 16.1 | 60.8

CC[C@H](C)C(=O)O[C@H]1C[C@H](O)C=C2C=C[C@H](C)[C@H](CC[C@@H](O)C[C@@H](O)CC(=O)O)[C@H]21 [Pravastatin] (max concentration tested 10000 nM)
Conditions | drug sensitivity score
IMC-1 (IL-2 20 ng/mL) [1] | 0
[2] | 0
[3] | 0
[4] | 0

percent inhibition of viability [%]
Conditions | 1 nM | 10 nM | 100 nM | 1000 nM | 10000 nM
IMC-1 (IL-2 20 ng/mL) [6] | 1.44 | 3.55 | -0.89 | 2.49 | 1.04
[5] | -2.35 | -3.35 | 0.49 | 5.71 | 4.92
[7] | -14.4 | -6.44 | 1.67 | -7.95 | -0.67
[8] | -8.99 | -4.79 | 10.9 | -9.05 | 10.6

Cc1cnc(Nc2ccc(OCCN3CCCC3)cc2)nc1Nc1cccc(S(=O)(=O)NC(C)(C)C)c1 (max concentration tested 10000 nM)
Conditions | drug sensitivity score
DERL-7 (IL-2 2.5 ng/mL) [11] | 18.8
KAI3 (IL-2 2.5 ng/mL) [18] | 19.8
KHYG-1 (IL-2 2.5 ng/mL) [14] | 19
NK-92 (IL-2 2.5 ng/mL) [12] | 10.2
NK-YS (IL-2 2.5 ng/mL) [13] | 14.6
NKL (IL-2 2.5 ng/mL) [15] | 22.6
SNK-6 (IL-2 2.5 ng/mL) [16] | 12.4
YT (IL-2 2.5 ng/mL) [10] | 11.8
[9] | 12.3
[17] | 18.2

percent inhibition of viability [%]
Conditions | DERL-7 (IL-2 2.5 ng/mL) [21] | KAI3 (IL-2 2.5 ng/mL) [28] | KHYG-1 (IL-2 2.5 ng/mL) [24] | NK-92 (IL-2 2.5 ng/mL) [22] | NK-YS (IL-2 2.5 ng/mL) [23] | NKL (IL-2 2.5 ng/mL) [25] | SNK-6 (IL-2 2.5 ng/mL) [26] | YT (IL-2 2.5 ng/mL) [20] | [19] | [27]
1 nM | 2.35 | -2.12 | -4.97 | -22 | -4.69 | -6.46 | -5 | -4.96 | -0.59 | 2.15
10 nM | 0.3 | 8.65 | -1.52 | -8.95 | 1.18 | 3.43 | -10.1 | -1.05 | 16 | 0.15
100 nM | 26.8 | 26.5 | 7.04 | -15.3 | 10.9 | 50.6 | -13.7 | 6.19 | 14.1 | 24.1
1000 nM | 84.8 | 90.3 | 99.4 | 33 | 68.9 | 83.5 | 58.4 | 51.3 | 51.8 | 83
10000 nM | 101 | 108 | 108 | 106 | 108 | 109 | 101 | 107 | 96.5 | 99.8

C[C@]12CC[C@@H]3c4ccc(OC(=O)N(CCCl)CCCl)cc4CC[C@H]3[C@@H]1CC[C@@H]2O [Estramustine] (max concentration tested 10000 nM)
Conditions | drug sensitivity score
IMC-1 (IL-2 20 ng/mL) [1] | 0
[2] | 0
[3] | 0
[4] | 0

percent inhibition of viability [%]
Conditions | 1 nM | 10 nM | 100 nM | 1000 nM | 10000 nM
IMC-1 (IL-2 20 ng/mL) [6] | -0.43 | -1.35 | -3.43 | -6.09 | -6.87
[5] | -5.93 | -3.58 | -7.28 | -7.29 | -6.53
[7] | -8.4 | -4.19 | -7.49 | -10.1 | -9.53
[8] | 10 | -2.77 | -6.62 | -4.76 | -8.48

CCCC(CCC)C(=O)O [Valproic acid] (max concentration tested 1000000 nM)
Conditions | drug sensitivity score
IMC-1 (IL-2 20 ng/mL) [1] | 0.34
[2] | 0.1
[3] | 1.5
[4] | 2

percent inhibition of viability [%]
Conditions | 100 nM | 1000 nM | 10000 nM | 100000 nM | 1000000 nM
IMC-1 (IL-2 20 ng/mL) [6] | -0.33 | -1.48 | -8.1 | -1.23 | 17.4
[5] | -5.06 | -5.78 | -6.14 | 2.07 | 35.9
[7] | -5.69 | -8.36 | -12.2 | -3.8 | 14.2
[8] | -3.47 | -9.08 | -3.52 | 0.62 | 31.7

COc1cc(C(=O)O)ccc1NC(=O)[C@@H]1N[C@@H](CC(C)(C)C)[C@](C#N)(c2ccc(Cl)cc2F)[C@H]1c1cccc(Cl)c1F [Idasanutlin] (max concentration tested 10000 nM)
Conditions | drug sensitivity score
IMC-1 (IL-2 20 ng/mL) [1] | 3.88
[2] | 17
[3] | 19.3
[4] | 21.9

percent inhibition of viability [%]
Conditions | 1 nM | 10 nM | 100 nM | 1000 nM | 10000 nM
IMC-1 (IL-2 20 ng/mL) [6] | -3 | 0.8 | -0.27 | 12.7 | 40.4
[5] | 6.65 | 13.4 | 39.6 | 95.2 | 101
[7] | -6.26 | -3.17 | 33.5 | 68.8 | 95.6
[8] | -8.25 | -4.67 | 32.8 | 82.7 | 97.8
